Test results as given in US20240316007A1, “COMPOSITIONS AND TREATMENTS WITH NIROGACESTAT” (SpringWorks Therapeutics, Inc., priority 0001, published 2024).
Structures can show the parent of a compound that is named as a salt.

Columns and labels:
[1] = tested on: progressing desmoid tumors; settings: Phase 2 study, participants with progressing desmoid tumors; cited from earlier work
[2] = Pharmacokinetic parameters for single and multiple oral doses of nirogacestat dihydrobromide; assay type: in vivo
Excerpt: The pharmacokinetic parameters for single and multiple oral doses of nirogacestat dihydrobromide (PF-03084014) are provided in Table 1 below.

[3] = Cohort 1: 150 mg, 1 × 150 mg, APERIOD 2, EXDOSE 150, N 10, Geometric Mean
[4] = Cohort 1: 150 mg, 1 × 150 mg, APERIOD 2, EXDOSE 150, N 10, Max
[5] = Cohort 1: 150 mg, 1 × 150 mg, APERIOD 2, EXDOSE 150, N 10, Median
[6] = Cohort 1: 150 mg, 1 × 150 mg, APERIOD 2, EXDOSE 150, N 10, Min
[7] = Cohort 1: 150 mg, 3 × 50 mg, APERIOD 1, EXDOSE 150, N 10, Max
[8] = Cohort 1: 150 mg, 3 × 50 mg, APERIOD 1, EXDOSE 150, N 10, Min
[9] = Cohort 2: 100 mg, APERIOD 1, EXDOSE 100, N 8, Geometric Mean
[10] = Cohort 2: 100 mg, APERIOD 1, EXDOSE 100, N 8, Max
[11] = Cohort 2: 100 mg, APERIOD 1, EXDOSE 100, N 8, Median
[12] = Cohort 2: 100 mg, APERIOD 1, EXDOSE 100, N 8, Min
[13] = Cohort 3: 50 mg, APERIOD 1, EXDOSE 50.0, N 8, Max
[14] = Cohort 3: 50 mg, APERIOD 1, EXDOSE 50.0, N 8, Median
[15] = Cohort 3: 50 mg, APERIOD 1, EXDOSE 50.0, N 8, Min

CCC[C@H](N[C@H]1CCc2cc(F)cc(F)c2C1)C(=O)Nc1cn(C(C)(C)CNCC(C)(C)C)cn1 [nirogacestat, (S)-2-(((S)-6,8-difluoro-1,2,3,4-tetrahydronaphthalen-2-yl)amino)-N-(1-(2-methyl-1-(neopentylamino)propan-2-yl)-1H-imidazol-4-yl)pentanamide]
participants progressing while on therapy [1]: no participants progressing while on therapy | response rate [1]: 29% | tumor shrinkage as measured by magnetic resonance imaging (MRI) [1]: significant tumor shrinkage

CCC[C@H](N[C@H]1CCc2cc(F)cc(F)c2C1)C(=O)Nc1cn(C(C)(C)CNCC(C)(C)C)cn1 [nirogacestat dihydrobromide, (S)-2-(((S)-6,8-difluoro-1,2,3,4-tetrahydronaphthalen-2-yl)amino)-N-(1-(2-methyl-1-(neopentylamino)propan-2-yl)-1H-imidazol-4-yl)pentanamide]
AUCinf [2, 3]: 3020 ng·h/mL | AUClast [2, 3]: 2930 ng·h/mL | CL/F [2, 3]: 49.7 L/h | Cmax [2, 3]: 686 ng/mL | Half-life [2, 3]: 24.7 h | AUCinf [2, 4]: 5880 ng·h/mL | AUClast [2, 4]: 5720 ng·h/mL | CL/F [2, 4]: 82.0 L/h | Cmax [2, 4]: 1200 ng/mL | Half-life [2, 4]: 34.7 h | Tmax [2, 4]: 1.52 h | AUCinf [2, 5]: 3100 ng·h/mL | AUClast [2, 5]: 3040 ng·h/mL | CL/F [2, 5]: 48.4 L/h | Tmax [2, 5]: 1.50 h | AUCinf [2, 6]: 1830 ng·h/mL | AUClast [2, 6]: 1790 ng·h/mL | CL/F [2, 6]: 25.5 L/h | Cmax [2, 6]: 456 ng/mL | Half-life [2, 6]: 13.3 h | Tmax [2, 6]: 0.500 h | CL/F ([2]; Cohort 1: 150 mg, 3 × 50 mg, APERIOD 1, EXDOSE 150, N 10, Geometric Mean): 49.2 L/h | AUCinf [2, 7]: 4870 ng·h/mL | AUClast [2, 7]: 4660 ng·h/mL | CL/F [2, 7]: 69.5 L/h | Cmax [2, 7]: 1120 ng/mL | Half-life [2, 7]: 32.0 h | Tmax [2, 7]: 2.00 h | CL/F ([2]; Cohort 1: 150 mg, 3 × 50 mg, APERIOD 1, EXDOSE 150, N 10, Median): 57.0 L/h | AUCinf [2, 8]: 2160 ng·h/mL | AUClast [2, 8]: 2080 ng·h/mL | CL/F [2, 8]: 30.8 L/h | Cmax [2, 8]: 547 ng/mL | Half-life [2, 8]: 18.1 h | AUCinf [2, 9]: 1780 ng·h/mL | AUClast [2, 9]: 1720 ng·h/mL | CL/F [2, 9]: 56.1 L/h | Cmax [2, 9]: 435 ng/mL | Half-life [2, 9]: 25.2 h | Tmax [2, 9]: 1.19 h | AUCinf [2, 10]: 3940 ng·h/mL | AUClast [2, 10]: 3710 ng·h/mL | CL/F [2, 10]: 124 L/h | Cmax [2, 10]: 654 ng/mL | Half-life [2, 10]: 34.6 h | Tmax [2, 10]: 2.00 h | CL/F [2, 11]: 58.4 L/h | Half-life [2, 11]: 24.4 h | AUCinf [2, 12]: 805 ng·h/mL | AUClast [2, 12]: 777 ng·h/mL | CL/F [2, 12]: 25.4 L/h | Cmax [2, 12]: 259 ng/mL | Half-life [2, 12]: 19.7 h | Tmax [2, 12]: 0.500 h | CL/F ([2]; Cohort 3: 50 mg, APERIOD 1, EXDOSE 50.0, N 8, Geometric Mean): 87.6 L/h | AUCinf [2, 13]: 2140 ng·h/mL | AUClast [2, 13]: 2120 ng·h/mL | CL/F [2, 13]: 660 L/h | Cmax [2, 13]: 507 ng/mL | Half-life [2, 13]: 32.8 h | Tmax [2, 13]: 1.52 h | CL/F [2, 14]: 74.9 L/h | Half-life [2, 14]: 23.3 h | AUCinf [2, 15]: 75.7 ng·h/mL | AUClast [2, 15]: 71.6 ng·h/mL | CL/F [2, 15]: 23.4 L/h | Cmax [2, 15]: 49.6 ng/mL | Half-life [2, 15]: 4.24 h | Tmax [2, 15]: 0.500 h
